# Assay results from PubChem BioAssay (NCI).
#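 Briefly, cells in 96-well plates were exposed to five compound concentrations for 48 h, and endpoints were estimated by linear interpolation. Abbreviation: GI50, concentration required for 50% inhibition of growth. TGI marks complete inhibition of growth.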
# Legend:
# Test in all cases: NCI tumour cell line growth inhibition, 48 h
# RPMI-8226 leukemia = system: RPMI-8226 leukemia
# OVCAR-8 ovarian = system: OVCAR-8 ovarian
# 786-0 renal = system: 786-0 renal
# SF-268 CNS = system: SF-268 CNS
# CAKI-1 renal = system: CAKI-1 renal
# K-562 leukemia = system: K-562 leukemia
# TK-10 renal = system: TK-10 renal
# SR leukemia = system: SR leukemia
# HS 578T breast = system: HS 578T breast
# MDA-MB-231 breast = system: MDA-MB-231 breast
SMILES,GI50 (RPMI-8226 leukemia),TGI (RPMI-8226 leukemia),GI50 (OVCAR-8 ovarian),TGI (OVCAR-8 ovarian),GI50 (786-0 renal),TGI (786-0 renal),GI50 (SF-268 CNS),TGI (SF-268 CNS),GI50 (CAKI-1 renal),TGI (CAKI-1 renal),GI50 (K-562 leukemia),TGI (K-562 leukemia),TGI (TK-10 renal),TGI (SR leukemia),GI50 (TK-10 renal),GI50 (HS 578T breast),TGI (HS 578T breast),GI50 (MDA-MB-231 breast),TGI (MDA-MB-231 breast)
CC(=O)[CH-]C(=O)c1ccccc1.CC(=O)[CH-]C(=O)c1ccccc1.CCOCC[O-].CCOCC[O-].[Ti+4],18 µM,58.7 µM,19.6 µM,41.7 µM,21.2 µM,74.2 µM,13.8 µM,34.8 µM,19.2 µM,57.8 µM,23 µM,55.8 µM,–,–,–,–,–,–,–
C=C[C@@]1(O)CCCC2=C(C(=O)OCC)CC[C@]21C,–,> 100 µM,–,> 100 µM,–,> 100 µM,–,> 100 µM,–,–,–,> 100 µM,> 100 µM,> 100 µM,–,–,–,–,–
CCOC(=O)CC1C(COC(=O)NC)OC(n2cnc3c(NC(=O)Nc4ccccc4)ncnc32)C1O[Si](C)(C)C(C)(C)C (stereo unspecified),2.16 µM,5.48 µM,10.3 µM,> 100 µM,7.94 µM,21.5 µM,5.06 µM,33.8 µM,3.72 µM,38.8 µM,3.09 µM,> 100 µM,50 µM,–,10.7 µM,3.39 µM,14.7 µM,17.5 µM,> 100 µM
O=c1c2cccc3cccc(c4n1CCN=4)c32,–,> 100 µM,–,> 100 µM,–,> 100 µM,–,> 100 µM,–,> 100 µM,–,> 100 µM,69.1 µM,81.5 µM,–,–,–,–,–
Nc1ccn(C2OC(COC(=O)C34CC5CC(CC(C5)C3)C4)C(O)C2O)c(=O)n1 (stereo unspecified),–,> 100 µM,–,> 100 µM,–,> 100 µM,–,> 100 µM,–,> 100 µM,–,> 100 µM,> 100 µM,–,–,–,> 100 µM,–,> 100 µM
COC(C(=O)NCCCCNC(=O)C(OC)c1ccccc1)c1ccccc1 (stereo unspecified),–,> 100 µM,–,> 100 µM,–,> 100 µM,–,> 100 µM,–,> 100 µM,–,> 100 µM,> 100 µM,> 100 µM,–,–,–,–,–
FC(F)(F)C1(Br)C(c2ccccc2)=C1c1ccccc1,–,> 100 µM,–,30.5 µM,–,31 µM,–,43.9 µM,–,54.7 µM,–,28.2 µM,48.6 µM,78.5 µM,–,–,–,–,–
CC(C)(C)C(=O)OCC1CCC(n2cnc3c(=O)[nH]c(N)nc32)O1 (stereo unspecified),–,> 100 µM,–,> 100 µM,–,> 100 µM,–,> 100 µM,–,> 100 µM,–,> 100 µM,> 100 µM,–,–,–,–,–,–
O=c1[nH]c2cc(Cl)ccc2nc1/C(=N\O)C(O)c1ccc([N+](=O)[O-])cc1 (stereo unspecified),–,> 100 µM,–,> 100 µM,–,> 100 µM,–,> 100 µM,–,> 100 µM,–,> 100 µM,> 100 µM,> 100 µM,–,–,–,–,–
CC1=NN(C(=O)c2ccc([N+](=O)[O-])cc2)C(=O)C1N=Nc1ccccc1C(=O)O (stereo unspecified),–,> 100 µM,–,> 100 µM,–,> 100 µM,–,> 100 µM,–,> 100 µM,–,> 100 µM,> 100 µM,–,–,–,–,–,–
C/C=C/CC(C)[C@@H](O)[C@H](NC)C(=O)O (stereo partly specified),–,> 100 µM,–,> 100 µM,–,> 100 µM,–,> 100 µM,–,> 100 µM,–,> 100 µM,> 100 µM,–,–,–,–,–,–
SCCSCCCSCCS,–,–,–,> 100 µM,–,> 100 µM,–,> 100 µM,–,–,–,> 100 µM,–,32.7 µM,–,–,–,–,> 100 µM
Cc1cc(N(CCC#N)S(C)(=O)=O)ccc1C=Nc1ccc(C(=O)NN2C(=O)/C(=C/c3ccc(N(CCC#N)CCC#N)cc3C)N=C2c2cc([N+](=O)[O-])ccc2Cl)cc1,–,> 100 µM,–,> 100 µM,–,> 100 µM,–,> 100 µM,–,> 100 µM,–,> 100 µM,> 100 µM,–,–,–,–,–,–
Cc1cc(=O)oc2c(C)c(OCCCOc3ccc4c(C)cc(=O)oc4c3C)ccc12,–,> 100 µM,–,> 100 µM,–,> 100 µM,–,> 100 µM,–,> 100 µM,–,> 100 µM,> 100 µM,> 100 µM,–,–,–,–,–
CC/C(CC(=O)CCC(=O)Nc1ccccc1[N+](=O)[O-])=N/NC(=O)C[n+]1ccccc1,–,> 100 µM,–,> 100 µM,–,> 100 µM,–,> 100 µM,–,> 100 µM,–,> 100 µM,> 100 µM,> 100 µM,–,–,–,–,–
CCc1cccc(CC)c1NC(=O)C1=C(C)NC(C)=C(C(=O)Nc2c(CC)cccc2CC)C1c1ccc([N+](=O)[O-])cc1,–,37.4 µM,–,64.3 µM,–,29.2 µM,–,> 100 µM,–,> 100 µM,–,93.5 µM,82.5 µM,–,–,–,–,–,–
COc1cc(CNC2c3cc4c(cc3C(c3cc(OC)c(OC)c(OC)c3)[C@H]3C(=O)OCC23)OCO4)cc(OC)c1OC (stereo partly specified),–,79.2 µM,–,–,–,> 100 µM,–,> 100 µM,–,–,–,> 100 µM,> 100 µM,> 100 µM,–,–,–,–,–
